Laboratory results taken from patent publication US11214593B2, “Anticancer peptides and uses thereof” (SUIGENERIS FARMACOSMETICS, S.L., priority 2017, dated 2022).
No end group written: not given here.

Assays:
[1] = system: human umbilical cord primary endothelial cells (HUVEC); assay: In vitro proliferation assay to test toxicity (Assay 2, crystal violet staining); format: cell-based; conditions: 10 μM up to 40 μM final concentration, 72 h, FIG. 2
Text: (§1) The BXPC3 cell line from primary adenocarcinoma of human pancreas was provided by the Biomedical Research Institute (IRB) of Barcelona, and human umbilical cord primary endothelial cells (HUVEC) were obtained directly by the investigator and stored in liquid nitrogen in the laboratory. BXPC3 cells were maintained in RPMI-1640 culture medium (Gibco) supplemented with 10% fetal bovine serum and antibiotics. HUVEC cells were maintained in M199 culture medium (Gibco) supplemented with 20% fetal bovine serum, endothelial cell growth supplement (ECGS), Heparin (Hep) and antibiotics. Cultures were maintained in the cell incubator in a humid atmosphere at 37° C. containing 5% CO2.
(§2) The different peptides to be tested were easily dissolved in DMSO at a concentration of 50 mM and subsequently a 5 mM intermediate dilution was prepared in Dulbecco's PBS which was subjected to two short cycles of sonication, which retendered the peptides completely soluble. […]
(§3) Assays with the different peptides were performed following the protocol explained below. […] Once resuspended in culture medium, they were counted in Newbauer's chamber after a 1:1 dilution with trypan blue. […]
The optical density values per well were obtained by a Biotek Synergy™2 multi-detection microplate reader, using a 590 nm filter and by scanning reading, obtaining the mean values per well.

[2] = system: human pancreatic tumor cell line BXPC3; assay: In vitro proliferation assay, cancer growth-inhibitory activity (Assay 1, crystal violet staining); format: cell-based; conditions: BXPC3 cells, peptide 20 μM final concentration, 72 h, FIG. 1-A
Text: as §1, §2, §3
The optical density values per well were obtained by a Biotek Synergy™2 multi-detection microplate reader, using a 590 nm filter and by scanning reading, obtaining the mean values per well. […]

Substance | effect on the growth of normal non-transformed cells (toxicity) [1] | inhibitory capacity on cancer cell growth (in words) [2]
Ac-CFEISKY-NH2 [Peptide P1C, CH3-C(O)-CFEISKY-NH2] | did not affect the growth | –
CFEISKY-NH2 [Peptide P1A, variant of the P1C peptide wherein the N-terminal end is free and the C-terminal end is amidated] | – | remarkable inhibitory capacity
CH3-C(O)-CFEVSKY-NH2 (Ac-CFEVSKY-NH2) [Peptide P1B, variant of the P1C peptide wherein the isoleucine is substituted by a valine] | – | remarkable inhibitory capacity
